“And” between values parts separate entries of the source, which are not always exact repeats. Identical values can stand only once.
Experiments:
Mus musculus = settings: oral; for LOEL / NOEL: drinking water; for LEL / NEL: short-term, duration: 28 days, gavage, F, B6C3F1
Rattus norvegicus [1] = settings: oral
Rattus norvegicus [2] = settings: oral; remark: listed apart in the source
Rattus norvegicus [3] = settings: subchronic; duration: 13 weeks; oral; gavage; M/F; Fischer 344; Deaths + Clinical Observation: Hunched posture Ruffled fur Lethargy Decreased appetite Impaired breathing + Body Weight Changes: decrease + …
[4] = chronic, duration: 6 months, M, Kunming, novel object test (discrimination index) + open field (outer zone entry events)
[5] = chronic, duration: 6 months, M, Kunming, open field (center square entry events) + open field (middle zone line cross events)
[6] = chronic, duration: 6 months, drinking water, M/F, Sprague-Dawley, Morris water maze (escape time, acquisition, day 1)
[7] = developmental, drinking water, M/F, Wistar, generation: F1, F1: activity time (developmental phase III) + F1: open field (squares traveled, 9 min)
[8] = chronic, duration: 2 years, diet, M/F, reduced body weight
[9] = subchronic, duration: 90 days, diet, M/F, increased male spleen weight and che depression (females)
[10] = Liver: Liver Weight, Relative + Thymus: CD8+ Cell Count
[11] = Spleen: Spleen Weight, Relative + Whole Body: Body Weight Change
[12] = developmental, diet, M/F, increased body weight and liver weight, reduced ossification and slightly dilated ureters in fetuses, reduced offspring weight gain, total …
[13] = developmental, M/F, reduced pup survival
[14] = subchronic, M/F, clinical sign (e.g., hunched postures) and reduced body weight
[15] = chronic, duration: 2 years, diet, M/F, reduced body weight, increased bun

Q: Which LOEL (Mus musculus; chronic, duration: 6 months, M/F, Kunming, active avoidance (shuttle box, 1st trial number where 3 consecutive conditioned avoidance responses occurred) + active avoidance (shuttle …) does the source give for `[F-]` [Fluoride] here?
A: The LOEL was 2.63 mg/kg-day.

Q: What about the NOEL (Mus musculus; chronic, duration: 6 months, M/F, Kunming, active avoidance (shuttle box, response latency to conditioned avoidance response averaged over 150 trials)) of the same compound?
A: Its NOEL is 26.3 mg/kg-day.

Q: And the LOEL (Mus musculus; [4])?
A: The LOEL was 11.5 mg/kg-day.

Q: And the NOEL (Mus musculus; [4])?
A: The NOEL was 5.63 mg/kg-day.

Q: What about the NOEL (Mus musculus; chronic, duration: 6 months, M, Kunming, novel object test (time exploring familiar object, long-term memory phase) + novel object test (time exploring familiar object, short-term …) of the same compound?
A: The NOEL was 11.5 mg/kg-day.

Q: What about the LOEL (Mus musculus; [5]) of the same compound?
A: Its LOEL is 5.63 mg/kg-day.

Q: What about the NOEL (Mus musculus; [5]) of the same compound?
A: The NOEL was 2.82 mg/kg-day.

Q: What about the LOEL (Mus musculus; chronic, duration: 6 months, M, Kunming, open field (middle zone entry events) + open field (outer zone line cross events) + open field (total distance moved)) of the same compound?
A: The LOEL was 2.82 mg/kg-day.

Q: And the LOEL (Mus musculus; subchronic, duration: 90 days, M, Swiss, open field (defecation) + open field (grooming events) + open field (rearing events) + open field (squares crossed))?
A: The LOEL was 9.58 mg/kg-day.

Q: And the NOEL (Mus musculus; subchronic, duration: 90 days, M, Swiss, tail suspension test (immobility time, total 6 min))?
A: The NOEL was 9.58 mg/kg-day.

Q: What about the NOEL (Rattus norvegicus [1]; chronic, duration: 4 months, diet, M, Hooded, T-maze, multiple (number of errors, acquisition, trial 1) + T-maze, multiple (number of errors, retention, trial 9) + T-maze, multiple (time…) of the same compound?
A: The NOEL was 6.13 mg/kg-day.

Q: And the LOEL (Rattus norvegicus [1]; [6])?
A: Its LOEL is 5.96 mg/L urine.

Q: And the NOEL (Rattus norvegicus [1]; [6])?
A: The NOEL was 2.59 mg/L urine.

Q: What about the NOEL (Rattus norvegicus [1]; chronic, duration: 6 months, drinking water, M/F, Sprague-Dawley, Morris water maze (escape time, acquisition, day 5)) of the same compound?
A: Its NOEL is 5.96 mg/L urine.

Q: What about the “NOEL (mg/kg ash femur)” value (Rattus norvegicus [1]; chronic, duration: 8 months, drinking water, F, Sprague-Dawley, acquisition of the bar press response (days to reach learning criteria) + acquisition of the bar press response (maximum response)) of the same compound?
A: Its value is 14800.

Q: And the NOEL (Rattus norvegicus [1]; chronic, duration: 16 weeks, drinking water, F, Sprague-Dawley, activity box (attention cluster, total time) + activity box (groom cluster, initiations) + activity box (groom cluster, total time) + …)?
A: The NOEL was 19 mg/kg-day.

Q: And the LOEL (Rattus norvegicus [1]; chronic, duration: 16 weeks, drinking water, F, Sprague-Dawley, activity box (groom/attention cluster initiations) + activity box (groom/attention cluster total time) + activity box (groom/explore cluster…)?
A: Its LOEL is 19 mg/kg-day.

Q: And the LOEL (Rattus norvegicus [1]; chronic, duration: 16 weeks, drinking water, M, Sprague-Dawley, activity box (attention cluster, total time) + activity box (groom cluster, initiations) + activity box (groom cluster, total time) + …)?
A: Its LOEL is 19 mg/kg-day.

Q: And the NOEL (Rattus norvegicus [1]; chronic, duration: 16 weeks, drinking water, M, Sprague-Dawley, activity box (groom/attention cluster, total time) + activity box (head turn, initiations) + activity box (head turn, total time))?
A: The NOEL was 19 mg/kg-day.

Q: And the NOEL (Rattus norvegicus [1]; chronic, duration: 104 days, drinking water, M, Sprague-Dawley, Von Frey hair test (withdrawal threshold, day 0))?
A: Its NOEL is 20.8 mg/kg-day.

Q: And the LOEL (Rattus norvegicus [1]; chronic, duration: 104 days, drinking water, M, Sprague-Dawley, tail immersion (withdrawal latency to heat, day 112) + Von Frey hair test (withdrawal threshold, day 104))?
A: The LOEL was 10.4 mg/kg-day.

Q: What about the NOEL (Rattus norvegicus [1]; chronic, duration: 195 days, drinking water, M, Lou/C, tail immersion (withdrawal latency to heat, 195 days) + Von Frey hair test (withdrawal threshold, 195 days) + Von Frey hair test (withdrawal…) of the same compound?
A: The NOEL was 20.8 mg/kg-day.

Q: And the LOEL (Rattus norvegicus [1]; developmental, drinking water, F, Wistar, generation: F1, F1: pain response (latency time to respond to hot plate))?
A: Its LOEL is 5.29 mg/kg-day.

Q: What about the LOEL (Rattus norvegicus [1]; developmental, drinking water, M/F, Sprague-Dawley, generation: F1, F1: Morris water maze (escape time, acquisition, average over days 1-4) + F1: Morris water maze (platform crossing, probe test, day 5) + F1…) of the same compound?
A: The LOEL was 3.27 mg/kg-day.

Q: What about the NOEL (Rattus norvegicus [1]; developmental, drinking water, M/F, Wistar, generation: F1, F1: Morris water maze (number of errors, acquisition) + F1: Morris water maze (time to find platform, probe test)) of the same compound?
A: The NOEL was 1.06 mg/kg-day.

Q: What about the LOEL (Rattus norvegicus [1]; developmental, drinking water, M/F, Wistar, generation: F1, F1: Morris water maze (number of errors, acquisition) + F1: Morris water maze (time to find platform, probe test) + F1: open field (face …) of the same compound?
A: The LOEL was 5.29 mg/kg-day.

Q: What about the LOEL (Rattus norvegicus [1]; developmental, drinking water, M/F, Wistar, generation: F1, F1: T-maze (number of errors, retention phase) + F1: T-maze (number of sessions to reach learning criterion)) of the same compound?
A: Its LOEL is 16 mg/kg-day.

Q: What about the NOEL (Rattus norvegicus [1]; developmental, drinking water, M/F, Wistar, generation: F1, F1: activity time (developmental phase I) + F1: activity time (developmental phase II) + F1: activity time (developmental phase III) + F1: …) of the same compound?
A: The NOEL was 5.29 mg/kg-day.

Q: What about the LOEL (Rattus norvegicus [1]; [7]) of the same compound?
A: The LOEL was 1.06 mg/kg-day.

Q: And the NOEL (Rattus norvegicus [1]; [7])?
A: The NOEL was 0.21 mg/kg-day.

Q: What about the LOEL (Rattus norvegicus [1]; developmental, drinking water, M/F, Wistar, generation: F1, F1: open field (face scrubbing events, 9 min)) of the same compound?
A: The LOEL was 0.21 mg/kg-day.

Q: What about the LOEL (Rattus norvegicus [1]; developmental, drinking water, M/F, Wistar, generation: F2, F2: T-maze (number of errors, retention phase) + F2: T-maze (number of sessions to reach learning criterion)) of the same compound?
A: Its LOEL is 16 mg/kg-day.

Q: And the LOEL (Rattus norvegicus [1]; developmental, drinking water, M/F, Wistar, generation: F3, F3: T-maze (number of errors, retention phase) + F3: T-maze (number of sessions to reach learning criterion))?
A: The LOEL was 16 mg/kg-day.

Q: And the LOEL (Rattus norvegicus [1]; developmental, drinking water, M, Wistar, generation: F1, F1: pain response (latency time to respond to hot plate))?
A: Its LOEL is 5.29 mg/kg-day.

Q: And the NOEL (Rattus norvegicus [1]; subchronic, duration: 6 weeks, drinking water, F, Sprague-Dawley, activity box (attention cluster, total time) + activity box (groom/attention cluster, total time) + activity box (groom/explore cluster, …)?
A: The NOEL was 21.4 mg/kg-day.

Q: What about the LOEL (Rattus norvegicus [1]; subchronic, duration: 6 weeks, drinking water, F, Sprague-Dawley, activity box (groom cluster, initiations) + activity box (groom cluster, total time) + activity box (groom, initiations) + activity box (…) of the same compound?
A: The LOEL was 21.4 mg/kg-day.

Q: What about the LOEL (Rattus norvegicus [1]; subchronic, drinking water, M/F, Sprague-Dawley, generation: P0, P0: Morris water maze (escape time, acquisition, average over days 1-4) + P0: Morris water maze (platform crossing, probe test, day 5) + P0…) of the same compound?
A: Its LOEL is 3.27 mg/kg-day.

Q: With `Cn1c(-c2ccccc2)cc(-c2ccccc2)[n+]1C` [Difenzoquat] as the compound, how does the LEL (Rattus norvegicus [2]; [8]) read?
A: The LEL was 125 mg/kg-day.

Q: And the NOEL (Rattus norvegicus [2]; [8])?
A: The NOEL was 25 mg/kg-day.

Q: How did the LEL (Rattus norvegicus [2]; [8]) turn out when `CCCCN(CCCC)SN(C)C(=O)Oc1cccc2c1OC(C)(C)C2` [Carbosulfan] was run?
A: The LEL was 25 mg/kg-day.

Q: What about the NOEL (Rattus norvegicus [2]; [8]) of the same compound?
A: The NOEL was 1 mg/kg-day.

Q: For `CC(C)OC(=O)Nc1ccccc1` [Propham], which LEL (Rattus norvegicus [2]; [9]) is on record?
A: Its LEL is 100 mg/kg-day.

Q: What about the NOEL (Rattus norvegicus [2]; [9]) of the same compound?
A: The NOEL was 50 mg/kg-day.

Q: How did the NOEL (Rattus norvegicus [2]; chronic, no effects) turn out when `CCCCOC(=O)COC(=O)c1ccccc1C(=O)OCCCC` was run?
A: Its NOEL is 1000 mg/kg-day.

Q: Which LEL (Mus musculus; [10]) does the source give for `CCNS(=O)(=O)C(F)(F)C(F)(F)C(F)(F)C(F)(F)C(F)(F)C(F)(F)C(F)(F)C(F)(F)F` [N-Ethylperfluorooctanesulfonamide] here?
A: Its LEL is 1 mg/kg-day.

Q: And the NEL (Mus musculus; [10])?
A: Its NEL is 0.3 mg/kg-day.

Q: And the NEL (Mus musculus; Spleen: B Cell Proliferation + Spleen: B220+ Cell Count + Spleen: CD4-/CD8- Cell Count + Spleen: CD4+ Cell Count + Spleen: CD4+/CD8+ Cell …)?
A: Its NEL is 10 mg/kg-day.

Q: What about the LEL (Mus musculus; Spleen: Plaque Forming Cell (PFC) Response + Uterus: Uterus Weight, Relative) of the same compound?
A: Its LEL is 0.3 mg/kg-day.

Q: What about the LEL (Mus musculus; [11]) of the same compound?
A: The LEL was 10 mg/kg-day.

Q: And the NEL (Mus musculus; [11])?
A: Its NEL is 3 mg/kg-day.

Q: And the LEL (Rattus norvegicus [1]; subchronic, duration: 56 days, diet, M, Sprague-Dawley, Whole Body: Body Weight Change)?
A: Its LEL is 6.82 mg/kg-day and 5.7 mg/kg-day.

Q: And the NEL (Rattus norvegicus [1]; subchronic, duration: 56 days, diet, M, Sprague-Dawley, Whole Body: Clinical Observations)?
A: The NEL was 6.82 mg/kg-day and 5.7 mg/kg-day.

Q: `CCCCC(CC)COC(=O)CCCCC(=O)OCC(CC)CCCC` (configuration not stated) [Bis(2-ethylhexyl)hexanedioate] was tested. Which LOAEL (Rattus norvegicus [2]; [12]) did it give?
A: The LOAEL was 1080 mg/kg-day.

Q: What about the NOAEL (Rattus norvegicus [2]; [12]) of the same compound?
A: Its NOAEL is 170 mg/kg-day.

Q: With `COP(=O)(OC)O/C(C)=C/C(=O)N(C)C` [Dicrotophos] as the compound, how does the LEL (Rattus norvegicus [2]; [13]) read?
A: The LEL was 0.25 mg/kg-day.

Q: And the NOEL (Rattus norvegicus [2]; [13])?
A: The NOEL was 0.1 mg/kg-day.

Q: For `[N-]=[N+]=[N-].[Na+]` [Sodium azide], which NOEL (Rattus norvegicus [3]) is on record?
A: The NOEL was < 1.25 mg/kg-day.

Q: What about the LOAEL (Rattus norvegicus [2]; [14]) of the same compound?
A: The LOAEL was 10 mg/kg-day.

Q: What about the NOAEL (Rattus norvegicus [2]; [14]) of the same compound?
A: The NOAEL was 5 mg/kg-day.

Q: Which LEL (Rattus norvegicus [2]; [15]) does the source give for `CCN(CC)C(=O)SCc1ccc(Cl)cc1` [Thiobencarb] here?
A: Its LEL is 5 mg/kg-day.

Q: And the NOEL (Rattus norvegicus [2]; [15])?
A: The NOEL was 1 mg/kg-day.

Q: `COC(=O)NS(=O)(=O)c1ccc(N)cc1` [Asulam] was tested. Which LEL (Rattus norvegicus [2]; reproduction developmental, F, reduced ovarian weight, lower liver/body weight) did it give?
A: The LEL was 50 mg/kg-day.
